Experimental data taken from US10561658B2, “Thieno- and pyrrolopyrimidine analogues as anticancer agents and methods of use thereof” (UNIVERSITY OF MARYLAND, BALTIMORE COUNTY, priority 2015, dated 2020).

Assays:
Assay in all cases: Select Screen kinase profiling
Assay type in all cases: biochemical
[1] = target: JAK1 (Homo sapiens, UniProt P23458)
Source text: (§1) The thieno[3,2-d]pyrimidine scaffold has been used extensively in the design of kinase inhibitors.

[2] = target: JAK2 (Homo sapiens, UniProt O60674)
Source text: as §1

[3] = target: LTK (TYK1) (Homo sapiens, UniProt P29376)
Source text: as §1

[4] = target: PRKD1 (PKC mu) (Homo sapiens, UniProt Q15139)
Source text: as §1

[5] = target: PRKD2 (PKD2) (Homo sapiens, UniProt Q9BZL6)
Source text: as §1

Measured: inhibition at 5 µM

PRKD2 (PKD2), sequence (Q9BZL6 whole entry): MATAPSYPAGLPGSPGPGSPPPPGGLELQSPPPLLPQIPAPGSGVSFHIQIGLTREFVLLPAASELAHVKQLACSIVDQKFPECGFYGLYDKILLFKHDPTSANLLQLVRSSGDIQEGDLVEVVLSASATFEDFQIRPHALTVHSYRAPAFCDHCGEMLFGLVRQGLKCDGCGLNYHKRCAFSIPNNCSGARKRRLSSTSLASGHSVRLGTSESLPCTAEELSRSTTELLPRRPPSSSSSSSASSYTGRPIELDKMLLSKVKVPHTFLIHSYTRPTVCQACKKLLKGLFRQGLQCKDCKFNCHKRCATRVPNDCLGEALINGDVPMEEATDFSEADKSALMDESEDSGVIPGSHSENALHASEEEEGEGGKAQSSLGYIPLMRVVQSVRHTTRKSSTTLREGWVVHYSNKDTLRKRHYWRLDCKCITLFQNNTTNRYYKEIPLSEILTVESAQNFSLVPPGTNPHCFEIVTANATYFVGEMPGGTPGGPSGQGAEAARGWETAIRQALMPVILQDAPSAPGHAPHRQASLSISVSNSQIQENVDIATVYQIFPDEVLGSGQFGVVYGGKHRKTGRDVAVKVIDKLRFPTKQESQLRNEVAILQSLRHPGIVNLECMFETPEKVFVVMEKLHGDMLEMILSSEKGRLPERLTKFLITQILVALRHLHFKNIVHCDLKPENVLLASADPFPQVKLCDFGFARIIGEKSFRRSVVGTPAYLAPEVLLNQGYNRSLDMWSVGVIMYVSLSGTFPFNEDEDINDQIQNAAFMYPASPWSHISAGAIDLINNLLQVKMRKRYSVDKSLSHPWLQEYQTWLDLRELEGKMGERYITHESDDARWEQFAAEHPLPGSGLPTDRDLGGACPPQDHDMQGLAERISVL
LTK (TYK1), sequence (P29376 17-864): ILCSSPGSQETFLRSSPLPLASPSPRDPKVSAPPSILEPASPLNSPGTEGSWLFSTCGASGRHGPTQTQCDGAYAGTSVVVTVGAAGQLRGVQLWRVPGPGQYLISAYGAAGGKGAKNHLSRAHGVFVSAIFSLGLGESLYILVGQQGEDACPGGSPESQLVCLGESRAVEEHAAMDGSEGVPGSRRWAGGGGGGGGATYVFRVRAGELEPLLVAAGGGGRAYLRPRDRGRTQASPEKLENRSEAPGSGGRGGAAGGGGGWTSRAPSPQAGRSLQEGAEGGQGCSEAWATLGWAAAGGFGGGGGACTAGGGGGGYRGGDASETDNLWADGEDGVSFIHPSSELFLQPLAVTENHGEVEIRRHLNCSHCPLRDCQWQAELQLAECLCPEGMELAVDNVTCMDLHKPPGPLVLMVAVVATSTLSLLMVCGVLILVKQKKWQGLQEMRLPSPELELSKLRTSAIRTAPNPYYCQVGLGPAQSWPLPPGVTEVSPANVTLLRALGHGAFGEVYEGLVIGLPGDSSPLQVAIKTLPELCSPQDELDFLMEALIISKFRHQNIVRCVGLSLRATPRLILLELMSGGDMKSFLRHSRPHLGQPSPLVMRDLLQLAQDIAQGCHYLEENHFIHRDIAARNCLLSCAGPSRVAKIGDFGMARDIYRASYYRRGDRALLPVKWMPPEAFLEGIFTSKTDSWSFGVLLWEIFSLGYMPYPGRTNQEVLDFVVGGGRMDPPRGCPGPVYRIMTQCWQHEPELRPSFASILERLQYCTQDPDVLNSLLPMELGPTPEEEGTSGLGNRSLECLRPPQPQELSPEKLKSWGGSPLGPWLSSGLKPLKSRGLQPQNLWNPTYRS
PRKD1 (PKC mu), sequence (Q15139 whole entry): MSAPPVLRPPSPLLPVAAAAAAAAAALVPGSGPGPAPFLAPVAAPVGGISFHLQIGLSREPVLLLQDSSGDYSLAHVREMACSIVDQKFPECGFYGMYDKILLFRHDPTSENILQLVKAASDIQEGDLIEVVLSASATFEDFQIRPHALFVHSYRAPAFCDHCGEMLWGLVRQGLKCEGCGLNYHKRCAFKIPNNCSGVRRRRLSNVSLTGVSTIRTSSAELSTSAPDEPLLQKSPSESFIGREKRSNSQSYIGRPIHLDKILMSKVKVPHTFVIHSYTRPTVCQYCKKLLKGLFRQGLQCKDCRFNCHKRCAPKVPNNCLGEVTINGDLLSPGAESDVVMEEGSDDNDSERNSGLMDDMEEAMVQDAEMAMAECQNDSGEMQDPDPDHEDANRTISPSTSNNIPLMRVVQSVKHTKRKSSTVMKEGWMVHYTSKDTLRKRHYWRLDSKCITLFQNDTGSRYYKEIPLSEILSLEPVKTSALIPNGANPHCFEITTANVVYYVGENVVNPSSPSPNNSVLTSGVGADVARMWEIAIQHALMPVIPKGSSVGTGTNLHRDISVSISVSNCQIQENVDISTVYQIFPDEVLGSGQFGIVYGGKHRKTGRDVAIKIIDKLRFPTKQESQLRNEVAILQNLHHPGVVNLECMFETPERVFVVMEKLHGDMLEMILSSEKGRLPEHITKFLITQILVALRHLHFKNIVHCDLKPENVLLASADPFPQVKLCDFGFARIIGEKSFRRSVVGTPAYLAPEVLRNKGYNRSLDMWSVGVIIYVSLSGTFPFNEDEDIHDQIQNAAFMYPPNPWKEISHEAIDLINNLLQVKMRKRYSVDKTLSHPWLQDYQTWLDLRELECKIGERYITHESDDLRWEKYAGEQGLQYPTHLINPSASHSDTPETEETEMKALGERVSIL
JAK2, sequence (O60674 whole entry): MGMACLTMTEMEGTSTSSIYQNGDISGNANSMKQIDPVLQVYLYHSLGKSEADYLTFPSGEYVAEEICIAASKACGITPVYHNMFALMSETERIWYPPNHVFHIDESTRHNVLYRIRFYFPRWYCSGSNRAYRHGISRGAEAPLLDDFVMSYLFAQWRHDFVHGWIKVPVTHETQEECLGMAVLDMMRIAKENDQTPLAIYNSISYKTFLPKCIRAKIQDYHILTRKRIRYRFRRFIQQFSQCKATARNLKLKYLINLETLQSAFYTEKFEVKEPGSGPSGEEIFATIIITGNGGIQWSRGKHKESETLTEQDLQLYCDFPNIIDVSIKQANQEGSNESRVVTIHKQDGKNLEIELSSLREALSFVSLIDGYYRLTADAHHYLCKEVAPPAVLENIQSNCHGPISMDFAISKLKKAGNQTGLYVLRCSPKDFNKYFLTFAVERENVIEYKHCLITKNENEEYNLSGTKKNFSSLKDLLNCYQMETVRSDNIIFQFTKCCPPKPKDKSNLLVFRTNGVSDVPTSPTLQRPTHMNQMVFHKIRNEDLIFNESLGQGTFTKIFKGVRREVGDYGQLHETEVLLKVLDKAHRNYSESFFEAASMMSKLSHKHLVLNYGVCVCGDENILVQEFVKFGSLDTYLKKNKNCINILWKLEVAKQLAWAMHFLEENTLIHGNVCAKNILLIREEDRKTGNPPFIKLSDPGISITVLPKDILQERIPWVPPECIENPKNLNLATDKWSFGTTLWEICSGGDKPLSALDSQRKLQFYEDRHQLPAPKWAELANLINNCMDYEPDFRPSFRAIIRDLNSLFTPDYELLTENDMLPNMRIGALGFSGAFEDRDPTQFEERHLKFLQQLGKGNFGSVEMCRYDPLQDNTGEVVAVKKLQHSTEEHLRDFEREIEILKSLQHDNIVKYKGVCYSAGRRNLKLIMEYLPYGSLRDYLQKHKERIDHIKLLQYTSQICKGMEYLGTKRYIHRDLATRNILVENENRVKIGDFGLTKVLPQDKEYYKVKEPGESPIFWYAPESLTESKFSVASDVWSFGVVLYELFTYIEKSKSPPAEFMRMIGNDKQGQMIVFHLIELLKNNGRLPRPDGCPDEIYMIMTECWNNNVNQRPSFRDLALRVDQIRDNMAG
JAK1, sequence (P23458 whole entry): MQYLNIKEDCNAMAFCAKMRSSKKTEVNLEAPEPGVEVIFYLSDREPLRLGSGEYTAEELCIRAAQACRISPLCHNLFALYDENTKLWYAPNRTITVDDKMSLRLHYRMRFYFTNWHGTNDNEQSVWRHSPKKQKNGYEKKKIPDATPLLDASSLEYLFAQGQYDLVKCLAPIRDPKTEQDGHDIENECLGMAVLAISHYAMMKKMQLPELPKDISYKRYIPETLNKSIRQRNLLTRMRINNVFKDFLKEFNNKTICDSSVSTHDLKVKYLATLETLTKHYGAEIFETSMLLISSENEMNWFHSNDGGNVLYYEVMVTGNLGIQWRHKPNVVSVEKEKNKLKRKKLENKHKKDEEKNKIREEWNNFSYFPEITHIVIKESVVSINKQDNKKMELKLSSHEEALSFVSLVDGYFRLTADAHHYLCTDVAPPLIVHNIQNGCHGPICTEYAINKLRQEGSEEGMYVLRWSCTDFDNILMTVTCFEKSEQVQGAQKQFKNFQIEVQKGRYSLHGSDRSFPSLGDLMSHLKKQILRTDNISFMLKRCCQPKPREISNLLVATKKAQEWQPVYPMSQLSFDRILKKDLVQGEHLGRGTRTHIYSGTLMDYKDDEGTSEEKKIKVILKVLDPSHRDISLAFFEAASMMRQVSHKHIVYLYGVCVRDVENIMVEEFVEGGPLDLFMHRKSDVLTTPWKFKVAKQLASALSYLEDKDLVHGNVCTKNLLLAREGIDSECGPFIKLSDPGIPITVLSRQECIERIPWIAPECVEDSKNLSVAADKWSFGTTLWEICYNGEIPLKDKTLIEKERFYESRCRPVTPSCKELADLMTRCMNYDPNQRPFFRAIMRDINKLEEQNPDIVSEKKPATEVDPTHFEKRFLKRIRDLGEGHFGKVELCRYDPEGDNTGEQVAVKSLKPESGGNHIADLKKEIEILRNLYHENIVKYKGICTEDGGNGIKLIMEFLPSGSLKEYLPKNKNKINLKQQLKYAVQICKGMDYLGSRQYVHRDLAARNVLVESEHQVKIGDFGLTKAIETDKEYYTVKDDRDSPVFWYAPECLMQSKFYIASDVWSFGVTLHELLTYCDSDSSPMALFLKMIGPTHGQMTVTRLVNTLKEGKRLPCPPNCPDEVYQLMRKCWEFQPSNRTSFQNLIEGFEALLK

Clc1nc(Cl)c2sccc2n1 [Compound 1, 2,4-Dichlorothieno[3,2-d]pyrimidine]
< 40%: all assays above
